How the values were obtained:
rat P2X3 receptor = target: T1, rat P2X3 receptor (Rattus norvegicus, UniProt P49654); test: P2X3 FLIPR (Fluorometric Imaging Plate Reader) assay; type: cell-based; conditions: CHO-K1 cells transfected with rat P2X3; agonist α,β-meATP 1 μM; FLIPR calcium fluorescence; read-out: pKi P2X3 (converted)
T1 construct: expressed in transfected cells; host or cells: CHO-K1
T1 sequence (P49654 1-397): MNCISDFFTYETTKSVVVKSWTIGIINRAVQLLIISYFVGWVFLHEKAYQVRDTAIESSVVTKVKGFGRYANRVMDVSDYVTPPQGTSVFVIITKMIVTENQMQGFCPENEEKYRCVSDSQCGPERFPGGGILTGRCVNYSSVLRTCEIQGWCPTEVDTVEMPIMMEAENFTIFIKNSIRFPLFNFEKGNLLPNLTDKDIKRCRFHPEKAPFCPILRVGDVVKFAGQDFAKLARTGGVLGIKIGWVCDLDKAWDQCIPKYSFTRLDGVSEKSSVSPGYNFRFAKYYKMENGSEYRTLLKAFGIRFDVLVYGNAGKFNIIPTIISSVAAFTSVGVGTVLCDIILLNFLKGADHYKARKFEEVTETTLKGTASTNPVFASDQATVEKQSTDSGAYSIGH
Experimental: (§1) CHO-K1 cells were transfected with cloned rat P2X3 or human P2X2/3 receptor subunits and passaged in flasks. 18-24 hours before the FLIPR experiment, cells were released from their flasks, centrifuged, and resuspended in nutrient medium at 2.5×10^5 cells/ml. The cells were aliquoted into black-walled 96-well plates at a density of 50,000 cells/well and incubated overnight in 5% CO2 at 37° C. On the day of the experiment, cells were washed in FLIPR buffer (calcium- and magnesium-free Hank's balanced salt solution, 10 mM HEPES, 2 mM CaCl2, 2.5 mM probenecid; FB). Each well received 100 μl FB and 100 μl of the fluorescent dye Fluo-3 AM [2 μM final conc.]. After a 1 hour dye loading incubation at 37° C., the cells were washed 4 times with FB, and a final 75 μl/well FB was left in each well.
(§2) Test compounds (dissolved in DMSO at 10 mM and serially diluted with FB) or vehicle were added to each well (25 μl of a 4× solution) and allowed to equilibrate for 20 minutes at room temperature. The plates were then placed in the FLIPR and a baseline fluorescence measurement (excitation at 488 nm and emission at 510-570 nm) was obtained for 10 seconds before a 100 μl/well agonist or vehicle addition. The agonist was a 2× solution of α,β-meATP producing a final concentration of 1 μM (P2X3) or 5 μM (P2X2/3). Fluorescence was measured for an additional 2 minutes at 1 second intervals after agonist addition. A final addition of ionomycin (5 μM, final concentration) was made to each well of the FLIPR test plate to establish cell viability and maximum fluorescence of dye-bound cytosolic calcium. Peak fluorescence in response to the addition of α,β-meATP (in the absence and presence of test compounds) was measured and inhibition curves generated using nonlinear regression. PPADS, a standard P2X antagonist, was used as a positive control.

human P2X2/3 receptor = target: T2, human P2X2/3 receptor (Homo sapiens, UniProt P56373+Q9UBL9); test: P2X2/3 FLIPR (Fluorometric Imaging Plate Reader) assay; type: cell-based; conditions: CHO-K1 cells transfected with human P2X2/3; agonist α,β-meATP 5 μM; FLIPR calcium fluorescence; read-out: pKi P2X2/3 (converted)
T2 construct: expressed in transfected cells; host or cells: CHO-K1
T2 sequence (Q9UBL9 1-471): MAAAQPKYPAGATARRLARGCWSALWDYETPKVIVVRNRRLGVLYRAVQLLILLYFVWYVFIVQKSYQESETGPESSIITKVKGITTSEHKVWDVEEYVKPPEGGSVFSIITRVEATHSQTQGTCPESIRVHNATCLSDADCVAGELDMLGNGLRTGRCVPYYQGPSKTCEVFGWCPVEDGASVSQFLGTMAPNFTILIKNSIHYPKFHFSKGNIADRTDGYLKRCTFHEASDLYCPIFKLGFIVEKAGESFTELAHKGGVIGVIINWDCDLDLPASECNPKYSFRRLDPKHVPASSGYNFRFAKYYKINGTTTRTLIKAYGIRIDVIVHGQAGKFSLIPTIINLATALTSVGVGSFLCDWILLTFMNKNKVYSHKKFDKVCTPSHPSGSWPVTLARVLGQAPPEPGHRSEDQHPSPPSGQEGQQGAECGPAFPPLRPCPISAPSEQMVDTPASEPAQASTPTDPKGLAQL
T2 sequence (P56373 1-397): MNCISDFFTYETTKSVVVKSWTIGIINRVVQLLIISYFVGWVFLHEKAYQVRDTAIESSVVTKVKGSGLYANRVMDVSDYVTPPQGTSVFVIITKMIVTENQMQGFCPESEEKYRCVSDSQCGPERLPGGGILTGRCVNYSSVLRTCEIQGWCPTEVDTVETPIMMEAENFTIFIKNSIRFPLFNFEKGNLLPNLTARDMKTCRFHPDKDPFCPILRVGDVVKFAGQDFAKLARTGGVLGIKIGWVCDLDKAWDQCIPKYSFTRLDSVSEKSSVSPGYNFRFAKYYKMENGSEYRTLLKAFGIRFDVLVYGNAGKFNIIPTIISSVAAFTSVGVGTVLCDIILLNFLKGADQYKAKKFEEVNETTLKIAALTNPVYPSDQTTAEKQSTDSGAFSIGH
Experimental: as §1, §2

Row | Compound | Ki (rat P2X3 receptor) [nM] | Ki (human P2X2/3 receptor) [nM]
1 | Cc1ccc(-c2cc(C(=O)N[C@@H](C)CO)cc(N3C(=O)OC[C@H]3C(C)C)c2)nc1 [Compound 9, N-((S)-2-Hydroxy-1-methyl-ethyl)-3-((R)-4-isopropyl-2-oxo-oxazolidin-3-yl)-5-(5-methyl-pyridin-2-yl)-benzamide] | 2.24 | 195
2 | Cc1ccc(-c2cc(C(=O)NC(C)c3cnccn3)cc(-n3c(=O)[nH]c4ccccc43)c2)nc1 (stereo not drawn) [Compound 4, 3-(5-Methyl-pyridin-2-yl)-5-(2-oxo-2,3-dihydro-benzoimidazol-1-yl)-N-(1-pyrazin-2-yl-ethyl)-benzamide] | 4.07 | 191
3 | Cc1ccc(-c2cc(C(=O)NCc3cccnn3)cc(-n3c(=O)oc4ccccc43)c2)nc1 [Compound 14, 3-(5-Methyl-pyridin-2-yl)-5-(2-oxo-benzooxazol-3-yl)-N-pyridazin-3-ylmethyl-benzamide] | 8.51 | 263
4 | CCC1COC(=O)N1c1cc(C(=O)NCc2cnc(C)cn2)cc(-c2ccc(C)cn2)c1 (stereo not drawn) [Compound 19, 3-(4-Ethyl-2-oxo-oxazolidin-3-yl)-N-(5-methyl-pyrazin-2-ylmethyl)-5-(5-methyl-pyridin-2-yl)-benzamide] | 4.27 | 66.1
5 | Cc1ccc(-c2cc(C(=O)NCc3cnc(C)cn3)cc(N3C(=O)OC[C@H]3C(C)C)c2)nc1 [Compound 11, 3-((R)-4-Isopropyl-2-oxo-oxazolidin-3-yl)-N-(5-methyl-pyrazin-2-ylmethyl)-5-(5-methyl-pyridin-2-yl)-benzamide] | 3.98 | 20.4

More lines, now with the values ahead:

Row | Ki (rat P2X3 receptor) [nM] | Ki (human P2X2/3 receptor) [nM] | Compound
6 | 3.16 | 35.5 | Cc1ccc(-c2cc(C(=O)NCc3cnc(C)cn3)cc(-n3c(=O)[nH]c4cncnc43)c2)nc1 [Compound 30, N-(5-Methyl-pyrazin-2-ylmethyl)-3-(5-methyl-pyridin-2-yl)-5-(8-oxo-7,8-dihydro-purin-9-yl)-benzamide]
7 | 5.62 | 85.1 | Cc1ccc(-c2cc(C(=O)NCc3ccc(C)nn3)cc(N3C(=O)OCC3(C)C)c2)nc1 [Compound 31, 3-(4,4-Dimethyl-2-oxo-oxazolidin-3-yl)-N-(6-methyl-pyridazin-3-ylmethyl)-5-(5-methyl-pyridin-2-yl)-benzamide]
8 | 12.6 | 44.7 | Cc1ccc(-c2cc(C(=O)NC(C)c3cnccn3)cc(N3C(=O)OC[C@H]3C(C)C)c2)c(F)c1 (stereo partly drawn) [Compound 47, 2′-Fluoro-5-((R)-4-isopropyl-2-oxo-oxazolidin-3-yl)-4′-methyl-biphenyl-3-carboxylic acid (1-pyrazin-2-yl-ethyl)-amide]
9 | 7.24 | 123 | Cc1ccc(-c2cc(C(=O)NCc3cnc(C)cn3)cc(N3C(=O)Cc4ccccc43)c2)cc1 [Compound 53, 4′-Methyl-5-(2-oxo-2,3-dihydro-indol-1-yl)-biphenyl-3-carboxylic acid (5-methyl-pyrazin-2-ylmethyl)-amide]
10 | 2.45 | 93.3 | Cc1ccc(-c2cc(C(=O)N[C@@H](C)CO)cc(N3C(=O)OC[C@H]3C(C)C)c2)c(F)c1 [Compound 46, 2′-Fluoro-5-((R)-4-isopropyl-2-oxo-oxazolidin-3-yl)-4′-methyl-biphenyl-3-carboxylic acid ((S)-2-hydroxy-1-methyl-ethyl)-amide]
11 | 2.19 | 79.4 | Cc1ccc(-c2cc(C(=O)N[C@@H](C)CO)cc(N3C(=O)OC[C@H]3C(C)C)c2)cc1 [Compound 38, 5-((R)-4-Isopropyl-2-oxo-oxazolidin-3-yl)-4′-methyl-biphenyl-3-carboxylic acid ((S)-2-hydroxy-1-methyl-ethyl)-amide]
12 | 6.17 | 13.8 | Cc1ccc(-c2cc(C(=O)NCc3cnc(C)nc3)cc(-n3c(=O)oc4ccccc43)c2)nc1 [Compound 33, 3-(5-Methyl-pyridin-2-yl)-N-(2-methyl-pyrimidin-5-ylmethyl)-5-(2-oxo-benzooxazol-3-yl)-benzamide]

Reference: patent publication US8093275B2, “Oxazolone and pyrrolidinone-substituted pryidine amides as P2X3 and P2X2/3 antagonists” (Roche Palo Alto LLC, priority 2009, dated 2012)
